Data reported in patent US20210261594A1, “USE OF AVERMECTIN DERIVATIVE FOR INCREASING BIOAVAILABILITY AND EFFICACY OF MACROCYLIC LACTONES” (INSTITUT NATIONAL DE RECHERCHE POUR L'AGRICULTURE, …, priority 2011, published 2021).
Read-outs that look alike come from different tables or passages of the source. *1 amine or outer side, *2 acyl side, *3 side chain or, on linkers, in order; H or OH if unused. Where a SMILES comes first, the peptide text is derived from it. Bridges are numbered along the chain shown (N, C = ends). Roman numbers before positions name the chains, in order. [ ]: non-standard residue; d: D form. Actinocin(9to1) = Cc1c2oc3c(C)ccc(C(=O)[*:1])c3nc-2c(C(=O)[*:2])c(N)c1=O; NMeV = CN[C@H](C(=O)O)C(C)C; Sar = CNCC(=O)O

Assays:
[1] = test system: multidrug resistant cells DC-3F/ADX; experiment: Reversal of actinomycin D resistance in DC-3F/ADX cells, MTT test; format: cell-based, Chinese hamster; conditions: for RF (IC50 for toxic drug alone/IC50 for toxic drug in the presence of compound): ActD; for RF (IC50 for toxic drug alone/IC50 for toxic drug in the presence of compound) / toxicity of actinomycin D when combined with the compound: compound at 5 μM
Description: (§1) Multidrug resistant tumor cells used in the present invention were Human lymphoma parental CEM and vinblastine-resistant CEM/VLB (Zordan-Nudpo et al., 1993) and parental […] and multidrug resistant cells DC-3F/ADX selected from spontaneously transformed DC-3F Chinese hamster lung fibroblasts on the basis of their resistance to actinomycin D (Biedler and Riehm, 1970). Both types of resistant cells overexpressed Pgp.
(§2) CEM/VLB cells and DC-3F/ADX cells described in aforementioned part 1.3 were plated into 96 well plates and allowed to grow for 24 h. They were then incubated 4 days with vinblastine (concentration range 0-1 μM) with or without IVM at 2.5 μM or ivermectin aglycone (IVM-Agly) at 2.5 and at 5 μM (FIG. 7); or 2 days with actinomycin D with actinomycin (concentration range 0.01-10 μM) with or without ivermectin (IVM) or ivermectin aglycone (IVM-Agly) at 5 μM (FIG. 8). Cytotoxicity was determined using the MTT test. IC50 values were graphically determined and they represent the concentration needed for half cell survival. Fold reversal of multidrug resistance called reversion factors were the ratio of IC50 for toxic drug alone/IC50 for toxic drug in the presence of IVM-Agly.

[2] = target: T1, rat GABA(A) receptor (α1, β2 and γ2 subunits) (Rattus norvegicus, UniProt P18508+P62813+P63138); experiment: GABA receptor affinity test, two-electrode voltage clamp in Xenopus oocytes; format: cell-based; conditions: for EC50: co-application with 2 μM GABA (EC10), Xenopus oocytes, read-out: EC50: concentration needed to induce half of the maximal potentiation of GABA effect; for agonist strength at GABA receptors, in words: compared to ivermectin
T1 construct: expressed in transfected cells; host or cells: Xenopus laevis oocytes injected with RNA
Procedure: The ability of ivermectin or moxidectin or ivermectin aglycone or ivermectin monosaccharide to interact with GABA receptors is assayed by electrophysiology measurements. Xenopus laevis oocytes are injected with 46 nl of RNA solution, with RNA coding for α1, β2 and γ2 subunits of the GABA channel at a ratio of 10:10:50 nM. The injected oocytes are incubated in modified Barth's solution [90 mM NaCl, 3 mM KCl, 0.82 mM MgSO4, 0.41 mM CaCl2, 0.34 mM Ca(NO3)2, 100 U/ml penicillin, 100 μg/ml streptomycin and 100 μg/ml kanamycin, 5 mM HEPES pH 7.6] at 18° C. for approximately 36 h before the measurements to ensure the expression of a functional receptor.
Electrophysiological experiments are performed by the two-electrode voltage-clamp method. Measurements were done in ND96 medium containing 96 mM NaCl, 2 mM KCl, 1 mM […], 1.8 mM CaCl2 and 5 mM HEPES, pH 7.5, at a holding potential of −80 mV. The control current is evoked by the application of 2 μM GABA and the normalized relative potentiation of 2 μM GABA-evoked currents by increasing concentration of ivermectin, moxidectin, ivermectin aglycone, or ivermectin monosaccharide is determined as:
[(IMLs+2 μM GABA/I2 μM GABA alone)/(I(MLs+2 μM GABA)Max/I2 μM GABA alone)]×100%
where I2 μM GABA is the control current evoked by 2 μM GABA, IMLs+2 μM GABA is the current evoked by each drug concentration in co-applications with 2 μM GABA, and I(MLs+2 μM GABA)Max is the maximal current evoked by co-applications of drugs and 2 μM GABA. A washout period of 4 min between each GABA application is introduced, allowing receptors to recover from desensitization. Three different batches of oocytes are used to collect data for each analysis. The perfusion system is cleaned between two experiments by washing with 10% DMSO after application of MLs derivatives to avoid contamination.

[3] = test system: Human lymphoma parental CEM cells; experiment: Vinblastine cytotoxicity in parental CEM cells, MTT test; format: cell-based; conditions: at concentrations below 0.001 μM
Description: as §1, §2

[4] = test system: vinblastine-resistant CEM/VBL cells; experiment: Reversal of vinblastine resistance in CEM/VBL cells, MTT test; format: cell-based, Human; conditions: 1 μM vinblastine
Description: as §1, §2

[5] = test system: Caenorhabditis elegans resistant to ivermectin (IVR10); experiment: Ivermectin resistance gravid assay in Caenorhabditis elegans IVR10; format: in vivo; conditions: for RF: C. elegans IVR10, IC50 IVM alone / IC50 IVM with reversal agent; for effect of the agent alone on the development of C. elegans: verapamil at 8 μM, IVM-Agly at 10 ng/ml
Procedure: A gravid assay method, based on the development of eggs to gravid adults over a 96 hr incubation period, was used to determine the resistance with respect to ivermectin (IVM) in C. elegans. The eggs were collected through rinsing the C. elegans worms resistant to IVM (IVR10). Sixty eggs were incubated/well, in standard conditions for four days (96 hours) in order reach adulthood (gravid) in the presence of drugs as followed: ivermectin aglycone (IVM-Agly) alone at 10 ng/ml (11.4 nM); verapamil (VRP) alone at 8 μM; IVM alone: […]; IVM+VRP 8 μM: 0, 1, 2, 4, 6, 8, 10, 20 ng/ml IVM; IVM+IVM-Agly 10 ng/ml: 0, 1, 2, 4, 6, 8, 10, 20 ng/ml ([…]) IVM. Assays were performed in triplicates per condition treatment and the experiment was performed 3 times.

murine Pgp (mdr1a) = target: T2, murine Pgp (mdr1a) (Mus musculus, UniProt P21447); experiment: Rhodamine 123 transport test in LLC-PK1-mdr1a cells overexpressing murine Pgp; format: cell-based; conditions: LLCPK1-mdr1a cells; for Cmax: concentration to obtain maximum inhibitory effect / Emax: maximum effect compared to maximum effect obtained with 5 μM of valspodar: rhodamine 123
T2 construct: expressed in transfected cells; host or cells: LLC-PK1 pig kidney epithelial cells (LLC-PK1-mdr1a), available in the INRA laboratory
Procedure: (§3) The cells used were LLC-PK1, pig kidney epithelial cell lines, and LLC-PK1-mdr1a which are recombinant LLC-PK1 cells overexpressing murine abcb1a gene. All cell lines are available in INRA laboratory. The transfected cell line LLC-PK1-HcPgpA, which overexpress nematode Haemonchus contortus PgpA, was developed by R. Prichard (McGill University). Cells were cultured in medium 199 supplemented with penicillin (100 units/ml), streptomycin ([…]), 10% of foetal calf serum and geneticin G418 (400 mg/1) as selecting compound for the LLC-PKI-mdr1a and LLC-PK1-HcPgpA cells. All compounds and medium are from Invitrogen, Cergy Pontoise, France. Cells were seeded on 24-well plates (Sarstedt, Orsay, France) at 2×10^5 cells/well in G418-free medium until confluence for transport activity and on 96-well plates for viability assay.
(§4) Cells were cultured with rhodamine 123 (10 μM, purchased from Sigma) with or without valspodar (VSP, […]). Compounds of interest were dissolved in DMSO and diluted in the medium (final DMSO concentration=0.1%) in a concentration range of 0.1-50 μM. After the 2-h incubation period, the cells were lysed and lysates were stored at −20° C. until analysis. To study the Pgp transport activity, the intracellular accumulation of fluorescent Rho 123 was determined by reading fluorescence in the cell lysates with a spectrofluorimeter (PerkinElmer LS50B, max excitation=507 nm; max emission=529 nm). Protein concentration was determined in lysates with BCA kit using bovine serum albumin as protein standard (Thermo scientific) Results were expressed as fluorescence arbitrary units after normalization to cellular protein content per well.

[6] = target: nematode Haemonchus contortus PgpA (HcPgpA) (Haemonchus contortus, UniProt O61301); experiment: Rhodamine 123 transport test in LLC-PK1-HcPgpA cells overexpressing nematode Pgp; format: cell-based; conditions: for EC50: LLC-PK1-HcPgpA cells, read-out: EC50, concentration of half inhibitory effect, Nematode PgpA
Procedure: as §3, §4

Mdr1ab−/− mice = experiment: In vivo toxicity test in Pgp-deficient mice; conditions: mouse, sc
Procedure: Wild-type and the Pgp knock-out mdr1ab^−/− mice with a FVB genetic background were obtained from Taconic (NY, USA). In rodents, there are two Pgps encoded by abc1a and abc1b genes and mdr1ab^−/− mice were deficient for the two gene products. Mice were housed at INRA's transgenic rodent facility at 22±2° C. under 12-hour light/dark cycles. Animals sampling was designed to reduce the influence of interfering parameters such as litter specificity (seven to nine different litters for a ten animals group). Mice received a standard chow diet recommended for the breeding and rearing of rodents (Harlan Teklad TRM Rat/Mouse Diet; Harlan Teklad, Gannat, France). Water and food were available ad libitum. In vivo studies were conducted in mice under European laws on the protection of animals and protocols are performed under procedure and principal for good clinical practice.
Toxicity of ivermectin and ivermectin aglycone is measured in Pgp-deficient mice. Mdr1ab^−/− mice are injected subcutaneously with increasing doses of ivermectin or ivermectin aglycone formulated in propylene glycol/[…] (60:40, v/v). Higher injected doses are 1.5 mg/kg (1.7 μmol/kg) for ivermectin and 16 mg/kg (27 μmol/kg) for ivermectin aglycone, respectively. Toxicity is evaluated during 24 h. […]

[7] = Table 2, read-out: EC50, concentration of half inhibitory effect, Murine Pgp

T1 sequence (P62813 28-455): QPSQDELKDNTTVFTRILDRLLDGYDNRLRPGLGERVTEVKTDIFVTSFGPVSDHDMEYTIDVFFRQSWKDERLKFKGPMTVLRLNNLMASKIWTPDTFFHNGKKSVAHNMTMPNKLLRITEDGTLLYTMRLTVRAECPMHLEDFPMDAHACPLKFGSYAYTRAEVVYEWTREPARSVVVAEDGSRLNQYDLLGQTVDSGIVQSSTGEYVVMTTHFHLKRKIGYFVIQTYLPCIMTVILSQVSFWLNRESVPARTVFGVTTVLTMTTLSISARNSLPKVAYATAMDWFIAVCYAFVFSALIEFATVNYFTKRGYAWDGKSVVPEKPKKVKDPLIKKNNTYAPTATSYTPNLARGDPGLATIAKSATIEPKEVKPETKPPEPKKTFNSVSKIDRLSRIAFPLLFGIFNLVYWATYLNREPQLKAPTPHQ
T1 sequence (P63138 25-474 limits assumed): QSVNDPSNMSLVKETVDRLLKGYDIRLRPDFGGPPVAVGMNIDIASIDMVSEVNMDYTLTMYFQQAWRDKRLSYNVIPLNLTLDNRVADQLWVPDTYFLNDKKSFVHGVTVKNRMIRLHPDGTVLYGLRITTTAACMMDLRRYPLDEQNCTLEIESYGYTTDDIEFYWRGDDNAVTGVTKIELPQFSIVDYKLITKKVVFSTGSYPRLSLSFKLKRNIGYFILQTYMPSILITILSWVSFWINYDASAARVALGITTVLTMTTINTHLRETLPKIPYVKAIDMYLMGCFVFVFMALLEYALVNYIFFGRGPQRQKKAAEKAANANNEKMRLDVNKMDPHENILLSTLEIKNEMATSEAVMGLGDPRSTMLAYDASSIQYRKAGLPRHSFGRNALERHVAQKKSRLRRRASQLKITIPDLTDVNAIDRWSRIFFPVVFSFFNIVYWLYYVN
T1 sequence (P18508 39-466): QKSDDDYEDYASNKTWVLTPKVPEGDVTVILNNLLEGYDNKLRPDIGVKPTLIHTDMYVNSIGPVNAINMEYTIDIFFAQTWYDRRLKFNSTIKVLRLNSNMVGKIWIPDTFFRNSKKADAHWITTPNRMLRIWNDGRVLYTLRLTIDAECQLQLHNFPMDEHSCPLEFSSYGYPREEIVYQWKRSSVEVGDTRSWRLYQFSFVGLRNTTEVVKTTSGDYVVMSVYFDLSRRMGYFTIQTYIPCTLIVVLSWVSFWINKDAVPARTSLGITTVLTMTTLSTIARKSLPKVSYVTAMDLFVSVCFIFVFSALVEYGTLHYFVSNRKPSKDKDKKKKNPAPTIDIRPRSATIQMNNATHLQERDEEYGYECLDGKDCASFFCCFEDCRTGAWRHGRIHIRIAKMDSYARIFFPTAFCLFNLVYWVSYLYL
T2 sequence (P21447 whole entry): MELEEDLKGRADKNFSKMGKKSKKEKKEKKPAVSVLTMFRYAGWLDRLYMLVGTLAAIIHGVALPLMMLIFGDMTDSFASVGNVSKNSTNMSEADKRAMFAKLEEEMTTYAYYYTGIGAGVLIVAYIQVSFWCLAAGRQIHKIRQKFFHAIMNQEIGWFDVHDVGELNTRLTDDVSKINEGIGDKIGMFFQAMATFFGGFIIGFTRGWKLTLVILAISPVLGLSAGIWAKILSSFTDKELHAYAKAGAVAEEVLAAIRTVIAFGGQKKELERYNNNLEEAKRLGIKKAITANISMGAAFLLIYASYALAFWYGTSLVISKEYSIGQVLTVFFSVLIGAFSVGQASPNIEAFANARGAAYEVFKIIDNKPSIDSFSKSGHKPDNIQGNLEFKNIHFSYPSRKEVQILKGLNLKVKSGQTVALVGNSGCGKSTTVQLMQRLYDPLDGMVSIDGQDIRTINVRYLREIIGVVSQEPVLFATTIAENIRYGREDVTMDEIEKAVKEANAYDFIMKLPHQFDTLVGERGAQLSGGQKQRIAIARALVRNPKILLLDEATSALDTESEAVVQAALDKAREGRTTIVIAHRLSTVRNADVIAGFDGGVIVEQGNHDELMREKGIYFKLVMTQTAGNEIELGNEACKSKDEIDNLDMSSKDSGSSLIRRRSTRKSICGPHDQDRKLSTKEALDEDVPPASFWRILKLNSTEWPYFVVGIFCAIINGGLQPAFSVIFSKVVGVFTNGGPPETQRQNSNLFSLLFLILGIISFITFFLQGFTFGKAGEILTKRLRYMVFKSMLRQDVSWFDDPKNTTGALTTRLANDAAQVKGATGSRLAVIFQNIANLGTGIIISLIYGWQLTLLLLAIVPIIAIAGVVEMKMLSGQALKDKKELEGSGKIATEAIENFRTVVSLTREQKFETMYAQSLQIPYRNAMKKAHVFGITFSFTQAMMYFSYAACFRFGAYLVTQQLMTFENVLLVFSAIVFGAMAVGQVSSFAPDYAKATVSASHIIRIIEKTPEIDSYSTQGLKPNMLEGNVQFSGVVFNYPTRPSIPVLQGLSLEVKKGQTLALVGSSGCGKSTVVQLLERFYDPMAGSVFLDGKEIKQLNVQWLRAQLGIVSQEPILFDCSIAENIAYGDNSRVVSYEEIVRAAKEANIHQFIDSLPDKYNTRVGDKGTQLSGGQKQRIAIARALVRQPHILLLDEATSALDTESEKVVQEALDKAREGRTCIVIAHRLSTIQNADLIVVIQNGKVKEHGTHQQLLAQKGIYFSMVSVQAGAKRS
Sequence of nematode Haemonchus contortus PgpA (HcPgpA) (O61301 entry or part of it): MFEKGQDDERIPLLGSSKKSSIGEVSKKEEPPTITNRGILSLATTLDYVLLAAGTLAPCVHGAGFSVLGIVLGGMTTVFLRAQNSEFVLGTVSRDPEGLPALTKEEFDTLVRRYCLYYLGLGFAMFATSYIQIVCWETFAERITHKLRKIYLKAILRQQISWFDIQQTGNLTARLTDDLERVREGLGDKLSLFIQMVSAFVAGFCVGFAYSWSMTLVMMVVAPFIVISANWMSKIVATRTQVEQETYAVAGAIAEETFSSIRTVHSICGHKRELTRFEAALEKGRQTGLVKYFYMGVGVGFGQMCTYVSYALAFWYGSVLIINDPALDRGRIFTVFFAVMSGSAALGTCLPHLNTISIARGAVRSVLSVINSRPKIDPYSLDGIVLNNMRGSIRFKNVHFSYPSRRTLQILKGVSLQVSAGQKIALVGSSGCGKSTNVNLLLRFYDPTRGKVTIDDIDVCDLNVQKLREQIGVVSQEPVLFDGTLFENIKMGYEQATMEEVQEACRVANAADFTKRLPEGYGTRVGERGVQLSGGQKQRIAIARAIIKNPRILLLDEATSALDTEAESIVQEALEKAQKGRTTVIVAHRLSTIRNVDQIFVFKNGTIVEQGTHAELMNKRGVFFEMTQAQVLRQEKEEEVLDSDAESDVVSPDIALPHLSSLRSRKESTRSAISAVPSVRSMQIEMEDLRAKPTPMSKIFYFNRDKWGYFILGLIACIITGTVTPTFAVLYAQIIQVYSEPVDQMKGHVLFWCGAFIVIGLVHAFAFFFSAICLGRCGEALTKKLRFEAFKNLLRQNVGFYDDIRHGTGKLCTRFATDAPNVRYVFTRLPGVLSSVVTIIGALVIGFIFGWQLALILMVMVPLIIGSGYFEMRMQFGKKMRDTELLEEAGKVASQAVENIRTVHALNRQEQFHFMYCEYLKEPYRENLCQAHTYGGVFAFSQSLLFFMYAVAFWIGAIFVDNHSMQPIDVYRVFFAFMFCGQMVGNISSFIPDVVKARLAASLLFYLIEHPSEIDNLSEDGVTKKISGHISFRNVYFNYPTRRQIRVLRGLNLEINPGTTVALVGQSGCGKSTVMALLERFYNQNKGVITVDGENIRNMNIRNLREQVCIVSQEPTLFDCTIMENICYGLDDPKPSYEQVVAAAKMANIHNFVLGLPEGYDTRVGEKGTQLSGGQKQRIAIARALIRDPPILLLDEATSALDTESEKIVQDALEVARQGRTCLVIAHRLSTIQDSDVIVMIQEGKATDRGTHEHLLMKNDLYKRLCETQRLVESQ

Cc1c2oc3c(C)ccc(C(=O)N[C@@H]4C(=O)N[C@H](C(C)C)C(=O)N5CCC[C@H]5C(=O)N(C)CC(=O)N(C)[C@@H](C(C)C)C(=O)O[C@@H]4C)c3nc-2c(C(=O)N[C@@H]2C(=O)N[C@H](C(C)C)C(=O)N3CCC[C@H]3C(=O)N(C)CC(=O)N(C)[C@@H](C(C)C)C(=O)O[C@@H]2C)c(N)c1=O [ActD, actinomycin D] (I: T[dV]P[Sar][NMeV] / II: T[dV]P[Sar][NMeV]; ester I:1-I:C, II:1-II:C; linker I:N-II:N via Actinocin(9to1))
DC-3F/ADX viability with actinomycin D alone ([1]; 1 μM actinomycin D): not altered
IC50 ([1]; DC-3F/ADX cells, MTT, read-out: IC50 of actinomycin D alone): 5 µM

CO/N=C1\C[C@]2(C[C@@H]3C[C@@H](C/C=C(\C)C[C@@H](C)/C=C/C=C4\CO[C@@H]5[C@H](O)C(C)=C[C@@H](C(=O)O3)[C@]45O)O2)O[C@H](/C(C)=C/C(C)C)[C@H]1C [MOX, moxidectin]
EC50 [2]: 0.0056 ± 0.0015 µM

CC[C@]1(O)C[C@@H]2CN(CCc3c([nH]c4ccccc34)[C@@](C(=O)OC)(c3cc4c(cc3OC)N(C)[C@H]3[C@@](O)(C(=O)OC)[C@H](OC(C)=O)[C@]5(CC)C=CCN6CC[C@]43[C@@H]65)C2)C1 [VBL, vinblastine]
sensitivity of parental cells to VBL [3]: highly sensitive
viability of CEM/VBL cells in vinblastine alone [4]: fully viable

CCC(C)C1OC2(CCC1C)CC1CC(CC=C(C)C(OC3CC(OC)C(O)C(C)O3)C(C)C=CC=C3COC4C(O)C(C)=CC(C(=O)O1)C34O)O2 (stereo not shown) [IVM Monosaccharide]
EC50 [2]: 0.122 µM
agonist strength at GABA receptors, in words [2]: weak agonist

CCC(C)C1OC2(CCC1C)CC1CC(CC=C(C)C(O)C(C)C=CC=C3COC4C(O)C(C)=CC(C(=O)O1)C34O)O2 (stereo not shown) [Ivermectin aglycone, 22,23-dihydroavermectin B1 aglycone]
EC50 [2]: 0.215 µM
agonist strength at GABA receptors, in words [2]: weak agonist
RF (IC50 for toxic drug alone/IC50 for toxic drug in the presence of compound) ([1]; DC-3F/ADX cells): 62
toxicity of actinomycin D when combined with the compound ([1]; DC-3F/ADX cells): became toxic
RF [5]: 1.5
effect of the agent alone on the development of C. elegans [5]: had no effects
Cmax: concentration to obtain maximum inhibitory effect (murine Pgp (mdr1a)): 10.0 µM
Emax: maximum effect compared to maximum effect obtained with 5 μM of valspodar (murine Pgp (mdr1a)): 80.0 % valspodar ®
Cmax: concentration to obtain maximum inhibitory effect (murine Pgp (mdr1a); listed as ivermectin aglycone): about 10 μM
EC50 (murine Pgp (mdr1a); Table 1, read-out: EC50: effective concentration for inhibiting 50% of transport of rhodamine 123 by murine Pgp): 1 µM
EC50 (murine Pgp (mdr1a); [7]): 2.5 µM
EC50 [6]: 0.5 µM
inhibitory potency for parasite HcPgpA relative to mammalian Pgp ([6]; ratio of EC50 murine Pgp / HcPgpA, 120 min): 5 times
toxicity in words (Mdr1ab−/− mice): does not show any toxicity

ivermectin
EC50 ([2]; listed as IVM): 0.0293 ± 0.0034 µM
EC50 [2]: 0.029 µM
RF (IC50 for toxic drug alone/IC50 for toxic drug in the presence of compound) ([1]; DC-3F/ADX cells): 45
toxicity of actinomycin D when combined with the compound ([1]; DC-3F/ADX cells): became toxic
IC50 of IVM alone ([5]; C. elegans IVR10, egg to gravid adult, 96 h): 6.8 ± 0.2 ng/mL
IC50 ([5]; C. elegans IVR10, egg to gravid adult, 96 h, read-out: IC50 of IVM alone): 0.0078 ± 0.0002 µM
concentration blocking the development of C. elegans IVR10 eggs ([5]; IVM alone): ~10 nM
Cmax: concentration to obtain maximum inhibitory effect (murine Pgp (mdr1a)): 5.0 µM
Emax: maximum effect compared to maximum effect obtained with 5 μM of valspodar (murine Pgp (mdr1a)): 88.0 % valspodar ®
EC50 (murine Pgp (mdr1a); [7]): 0.5 µM
EC50 [6]: 0.6 µM

COc1ccc(CCN(C)CCCC(C#N)(c2ccc(OC)c(OC)c2)C(C)C)cc1OC (stereo not shown) [verapamil]
RF [5]: 2.1
effect of the agent alone on the development of C. elegans [5]: had no effects
